Measured values: patent publication US10633397B2, “Substituted polycyclic pyridone derivatives and prodrugs thereof” (priority 2015, dated 2020)
Values after ≈ are worked out from the molar mass of the structure shown.

Columns and labels:
CYP2C19 = target: T1, CYP2C19 (Homo sapiens, UniProt P33261); experiment: biochemical; assay type: in vitro ADME
T1 construct: Using commercially available pooled human hepatic microsome; from tissue
From the text: Test Example 3: CYP Inhibition Test
Using commercially available pooled human hepatic microsome, and employing, as markers, 7-ethoxyresorufin O-deethylation (CYP1A2), tolbutamide methyl-hydroxylation (CYP2C9), mephenytoin 4′-hydroxylation (CYP2C19), dextromethorphan O-demethylation (CYP2D6), and terfenedine hydroxylation (CYP3A4) as typical substrate metabolism reactions of human main five CYP enzyme forms (CYP1A2, 2C9, 2C19, 2D6, 3A4), an inhibitory degree of each metabolite production amount by a compound of the present invention was assessed.
The reaction conditions were as follows: substrate, 0.5 μmol/L ethoxyresorufin (CYP1A2), 100 μmol/L tolbutamide (CYP2C9), 50 μmol/L S-mephenytoinmephenitoin (CYP2C19), 5 μmol/L dextromethorphan (CYP2D6), 1 μmol/L terfenedine (CYP3A4); reaction time, 15 minutes; reaction temperature, 37° C.; enzyme, pooled human hepatic microsome 0.2 mg protein/mL; concentration of a compound of the present invention, 1, 5, 10, 20 μmol/L (four points).
Each five kinds of substrates, human hepatic microsome, or a compound of the present invention in 50 mmol/L Hepes buffer as a reaction solution was added to a 96-well plate at the composition as described above, NADPH, as a cofactor was added to initiate metabolism reactions as markers and, after the incubation at 37° C. for 15 minutes, a methanol/acetonitrile=1/1 (v/v) solution was added to stop the reaction. After the centrifugation at 3000 rpm for 15 minutes, resorufin (CYP1A2 metabolite) in the supernatant was quantified by a fluorescent multilabel counter and toltributamide hydroxide (CYP2C9P metabolite), mephenytoin 4′ hydroxide (CYP2C19 metabolite), […] (CYP2D6 metabolite), and terfenadine alcohol (CYP3A4 metabolite) were quantified by LC/MS/MS.

in vivo = details: rat, SD rats, intravenous administration
Procedure: Test Example 13: Intravenous Administration Test
Examined experimental materials and method of intravenous administration test
(1) Animals used: SD rats were used.
(2) Rearing conditions: Pellets and sterilized tap water were fed to SD rats ad libitum.
(3) Dosage and grouping: A predetermined dosage was intravenously administered. Groups were set as follows. (Dosage varied for each compound)
Intravenous administration 0.5-1 mg/kg (n=2-3)
(4) Preparation of administration solution: Intravenous administration was performed after solubilization.
(5) Administration method: Intravenous administration was performed with a needle-equipped syringe on the caudal vein.
(6) End point: Blood was collected over time, and the plasma concentration of the compound of the present invention was measured using LC/MS/MS.
(7) Statistical analysis: As for the transition of the plasma concentration of the compound of the present invention, the total body clearance (CLtot) and the elimination half-life (t1/2, z) were calculated using nonlinear least-squares program WinNonlin®.

[1] = Metabolism stability test; assay type: in vitro ADME; details: human liver microsomes, 30 minutes, 37° C., 2 μmol/L of test compound
Procedure: Test Example 5: Metabolism Stability Test
Using commercially available pooled human hepatic microsomes, a compound of the present invention was reacted for a constant time, and a remaining rate was calculated by comparing a reacted sample and an unreacted sample, thereby, a degree of metabolism in liver was assessed.
A reaction was performed (oxidative reaction) at 37° C. for 0 minute or 30 minutes in the presence of 1 mmol/L NADPII in 0.2 mL of a buffer (50 mmol/L Tris-HCl pH 7.4, 150 mmol/L potassium chloride, 10 mmol/L magnesium chloride) containing 0.5 mg protein/mL of human liver microsomes. After the reaction, 50 μL of the reaction solution was added to 100 μL of a methanol/acetonitrile=1/1 (v/v), mixed and centrifuged at 3000 rpm for 15 minutes. The compound of the present invention in the supernatant was quantified by LC/MS/MS or Solid Phase Extraction (SPE)/MS, and a remaining amount of the compound of the present invention after the reaction was calculated, letting a compound amount at 0 minute reaction time to be 100%. Hydrolysis reaction was performed in the absence of NADPII and glucuronidation reaction was in the presence of 5 mM UDP-glucuronic acid in place of NADPH, followed by similar operations.

influenza virus = experiment: CPE inhibitory effect confirming assay; assay type: cell-based; details: unidentified influenza virus, 72 h, read-out: CPE_EC50
hERG (IKr) = target: T2, hERG (IKr) (Homo sapiens, UniProt Q12809); experiment: hERG test; assay type: cell-based; details: HEK293 cells expressing hERG channel, pH 7.4, 0.3 to 10 μM of test compound, read-out: % inhibition of tail peak current (IKr)
T2 construct: expressed in transfected cells; host or cells: HEK293
T2 sequence (Q12809 whole entry): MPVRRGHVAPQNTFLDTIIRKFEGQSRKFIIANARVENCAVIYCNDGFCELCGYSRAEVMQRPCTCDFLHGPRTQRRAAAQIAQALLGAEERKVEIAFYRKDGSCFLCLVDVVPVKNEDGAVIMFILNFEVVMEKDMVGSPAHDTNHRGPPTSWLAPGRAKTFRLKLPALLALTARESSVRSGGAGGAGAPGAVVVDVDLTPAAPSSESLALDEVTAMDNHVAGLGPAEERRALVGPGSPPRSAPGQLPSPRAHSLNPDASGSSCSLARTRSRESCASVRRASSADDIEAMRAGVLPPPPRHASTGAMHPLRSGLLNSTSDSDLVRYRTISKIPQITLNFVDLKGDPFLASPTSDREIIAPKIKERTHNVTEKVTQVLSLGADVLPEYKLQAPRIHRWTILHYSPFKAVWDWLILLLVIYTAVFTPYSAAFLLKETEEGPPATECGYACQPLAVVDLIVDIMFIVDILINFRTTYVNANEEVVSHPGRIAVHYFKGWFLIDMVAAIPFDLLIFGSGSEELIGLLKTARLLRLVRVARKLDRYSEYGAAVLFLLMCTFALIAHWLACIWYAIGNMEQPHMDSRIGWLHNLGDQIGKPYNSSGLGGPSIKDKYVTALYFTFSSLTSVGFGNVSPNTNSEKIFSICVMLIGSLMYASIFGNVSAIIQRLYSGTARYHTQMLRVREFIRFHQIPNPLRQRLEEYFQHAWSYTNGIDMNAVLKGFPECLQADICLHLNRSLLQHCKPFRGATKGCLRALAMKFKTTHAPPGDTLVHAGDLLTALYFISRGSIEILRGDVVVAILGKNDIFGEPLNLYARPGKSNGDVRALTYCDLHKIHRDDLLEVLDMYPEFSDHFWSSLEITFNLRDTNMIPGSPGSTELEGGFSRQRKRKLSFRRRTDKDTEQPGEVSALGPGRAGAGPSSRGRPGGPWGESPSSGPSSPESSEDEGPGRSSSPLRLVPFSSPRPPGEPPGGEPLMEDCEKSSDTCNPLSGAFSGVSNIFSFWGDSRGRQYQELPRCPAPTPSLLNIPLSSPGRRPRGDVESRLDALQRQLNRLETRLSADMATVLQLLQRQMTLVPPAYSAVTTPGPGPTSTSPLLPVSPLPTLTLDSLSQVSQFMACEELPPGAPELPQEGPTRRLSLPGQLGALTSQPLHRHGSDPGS
From the text: Test Example 8: hERG Test
For the purpose of assessing risk of an electrocardiogram QT interval prolongation of the compound of the present invention, effects of the compound of the present invention on delayed rectifier K+ current (IKr), which plays an important role in the ventricular repolarization process, was studied using HEK293 cells expressing human ether-a-go-go related gene (hERG) channel.
After a cell was retained at a membrane potential of −80 mV by whole cell patch clamp method using an automated patch clamp system (PatchXpress 7000A, Axon Instruments Inc.), IKr induced by depolarization pulse stimulation at +40 mV for 2 seconds and, further, repolarization pulse stimulation at −50 mV for 2 seconds, was recorded. After the generated current was stabilized, extracellular solution (NaCl: 135 mmol/L, KCl: 5.4 mmol/L, NaH2PO4: 0.3 mmol/L, CaCl2.2H2O: 1.8 mmol/L, MgCl2.6H2O: 1 mmol/L, glucose: 10 mmol/L, HEPES (4-(2-hydroxyethyl)-1-piperazineethanesulfonic acid): 10 mmol/L, pH=7.4), in which the compound of the present invention had been dissolved at an objective concentration, was applied to the cell at room temperature for 10 minutes. From the recording IKr, an absolute value of the tail peak current was measured based on the current value at the resting membrane potential using analysis software (DataXpress ver. 1, Molecular Devices Corporation).

physchem = assay type: physicochemical; details: kinetic from dmso stock; 1% DMSO addition conditions; JP-1 or JP-2 solution not stated in result
Procedure: Test Example 9: Solubility Test
A 10 mmol/L solution of the compound was prepared with DMSO, and 2 μL of the solution of the compound of the present invention was added, respectively, to 198 μL of JP-1 solution (water were added to 2.0 g of sodium chloride and 7.0 mL of hydrochloric acid to reach 1000 mL) and JP-2 solution (1 volume of water were added to 1 volume of the solution which 3.40 g of potassium dihydrogen phosphate and 3.55 g of anhydrous disodium hydrogen phosphate to reach 1000 mL). The mixture was shaked for 1 hour at a room temperature, and the mixture was filtered. The filtrate was ten-fold diluted with methanol/water=1/1(v/v), and the compound concentration in the filtrate was measured with LC/MS or SPE/MS by the absolute calibration method.

T1 sequence (P33261 whole entry): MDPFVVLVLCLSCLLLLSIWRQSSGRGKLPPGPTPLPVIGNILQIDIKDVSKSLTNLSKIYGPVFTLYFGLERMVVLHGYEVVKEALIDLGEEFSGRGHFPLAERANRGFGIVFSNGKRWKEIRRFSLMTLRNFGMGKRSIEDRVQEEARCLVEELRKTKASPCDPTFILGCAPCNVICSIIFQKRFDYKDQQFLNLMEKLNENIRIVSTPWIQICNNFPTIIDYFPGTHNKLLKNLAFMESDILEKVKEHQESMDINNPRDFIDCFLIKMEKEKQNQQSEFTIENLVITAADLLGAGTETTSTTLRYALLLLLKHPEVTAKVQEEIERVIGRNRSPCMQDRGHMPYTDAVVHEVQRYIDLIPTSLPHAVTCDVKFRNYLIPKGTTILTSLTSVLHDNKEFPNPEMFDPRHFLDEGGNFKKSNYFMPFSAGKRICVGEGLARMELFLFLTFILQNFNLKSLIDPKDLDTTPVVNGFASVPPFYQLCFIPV

O=C1c2c(O)c(=O)ccn2N([C@@H]2c3ccccc3SCc3c2ccc(F)c3F)[C@@H]2COCCN12 [III-2]
IC50 (CYP2C19): > 20000 nM | half-life (in vivo; read-out: elimination half-life (t1/2, z) (converted)): 3.4 h | clearance (in vivo; read-out: total body clearance (CLtot)): 16.4 mL/min/kg | % compound remaining after microsomal incubation [1]: 90.1% | EC50 (influenza virus): 1.13 nM | inhibition at 10 min (hERG (IKr)): 7.9% | solubility (physchem): 42.2 µM (≈ 20.4 µg/mL)
